pIC50: −log10 of the molar value.
Legend:
SKM-1 = test: MTT cytotoxicity assay, SKM-1 (sAML cell line); assay type: cell-based, human; settings: for SKM-1 cell viability: 24h incubation
Procedure: (§1) The following five human leukemia cell lines were obtained from the Shanghai Institute of Cell Biology (Shanghai, China): Kasumi-1, HL-60, THP-1, U937 and K562. The SICM-1 leukemia cell line was acquired from the Health Science Research Resources Bank (Osaka, Japan), established from a patient with MDS that had progressed to myelomonocytic leukemia.
(§2) Cells were seeded into 96-well microtiter plates (Nunc, Roskilde, Denmark) at densities of either 1×10^5 cells/ml (established cell lines) or 5×10^5 cells/ml (primary AML cells). […] After exposure, 20 μl of 3-(4, 5-dimethylthiazol-2-yl)-2, 5-diphenylterazolium bromide solution (MTT, Sigma-Aldrich) was added to each well. The plates were then incubated for 4 h at 37° C. The MTT-containing solution was then aspirated away, 200 μI DMSO added to each well, and absorbance at 570 nm was measured.

SKM-1 xenografts = test: In vivo tumorigenicity assay, SKM-1 xenograft; design: species or system NOD/SCID mice; settings: 2 mg/kg i.p. every other day for 14d, vs control
Procedure: All animal studies were performed according to the guidelines of Animal Care and Use Committee of the First Affiliated Hospital of Zhejiang University and met the NIH guidelines for the care and use of laboratory animals. And all animal studies were approved by IACUC committee of the First Affiliated Hospital of Zhejiang University. Nonobese diabetic/severe combined immunodeficiency (NOD/SCID) mice aged 6 weeks were purchased from the Shanghai Experimental Animal Center of the Chinese Academy of Sciences (Shanghai, China). SKM-1 cells (5×106 in 100 μl PBS) were injected subcutaneously into the right flank of each mouse. By 10-14d, when the tumor volumes had reached 90-110 mm3, the mice were randomly divided into four groups: DNR LB100, DNR only, LB100 only, and control. Mice were injected intraperitoneally (i.p.) with 2 mg/kg DNR and/or 2 mg/kg LB100, every other day for a total of 14d. Control mice were injected with an equal volume of PBS. Tumor size was monitored every 3d based on caliper measurements of the two perpendicular diameters; tumor volume was calculated using the formula V=(width′×length×it/6).

SKM-1 cells [1] = test: Cell cycle analysis by flow cytometry; assay type: cell-based, human; settings: 12 h exposure at 5 μM
Procedure: Cells were collected after being fixed overnight in 75% ethanol at −20° C. Fixed cells were washed twice with PBS, then incubated for 30 min with RNase A and propidium iodide (10 μg/ml). Cell cycle analysis was performed using a BDL SRII Flow Cytometer and FACSDiva Software (BD Bioscience, Franklin Lakes, USA). Raw data was analyzed using ModFit LT 3.2 software (Verity Software House, Topsham, USA).

Bcl-2 = test: Immunohistochemistry staining of SKM-1 xenograft for Bcl-2; design: species or system NOD/SCID mice; settings: in-vivo
Procedure: Immunohistochemical staining was performed on the paraffin-embedded sections. Tissue sections were dewaxed and rehydrated before performing antigen retrieval. Anti-BCL-2 (Cell Signaling Technology, MA, USA) were applied at 1:100 dilution in PBS to incubate slides overnight at 4° C., and incubated with an HRP-conjugated secondary antibody for 1 hat room temperature. DAB was used for color development, and dark brown staining was considered positive. All slides were photographed with optical microscopy Olympus BX51.

SKM-1 cells [2] = test: Western blotting of SKM-1 cells; assay type: cell-based, human
Procedure: Cells were washed twice in PBS and lysed in 10 mM Tris, 1 mM ethylenediaminetetra-acetic acid (EDTA), 10 mM KCl, 0.3% Triton, and 0.1 mM phenylmethanesulfonyl fluoride (PMSF). Equal amounts of protein (30-50 μg) were separated on 8-12% SDS-polyacrylamide gels, and transferred to polyvinylidene fluoride (PVDF) membranes. Membranes were blocked with 5% non-fat milk and incubated overnight with the appropriate primary antibody at manufacturer-specified dilutions. Primary monoclonal antibodies were against I3-ACTIN (Santa Cruz Biotechnology, CA, USA); CDCl25C, p-CDCl25C, CDCl2, p-CDCl2, PP2A-A, PP2A-B, PP2A-C (Epitomics, USA); AKT, p-AKT, PARP, RAS, p-MEK, p-ERK, Raf, p-CamKII, Bc.1-2 and p-Bd-2 (Cell Signaling Technology, MA, USA).
Next, the membranes were washed three times in TBS-T buffer (10 mm Tris-HCl, pH 8, 150 mm NaCl, 0.1% Tween 20), and incubated for 1 h with the corresponding horseradish peroxidase (HRP)-conjugated secondary antibody at 1:5,000 dilution. Bound secondary antibody was detected using an enhanced chemiluminescence (ECL) system (Pierce Biotechnology, IL, USA).

U937 = test: MTT cytotoxicity assay, U937; assay type: cell-based; settings: Homo sapiens, U-937; U937, at 4 h after treatment
Procedure: as §1, §2

PP2A = biological target: T1, PP2A (Homo sapiens, UniProt P67775); test: PP2A phosphatase activity assay in SKM-1 cells; assay type: cell-based; settings: 10 μM LB100, SKM-1 cells
T1 construct: endogenous in cells; host or cells: SKM-1 cells (lysate, immunoprecipitated with Millipore kit)
T1 sequence (P67775 whole entry): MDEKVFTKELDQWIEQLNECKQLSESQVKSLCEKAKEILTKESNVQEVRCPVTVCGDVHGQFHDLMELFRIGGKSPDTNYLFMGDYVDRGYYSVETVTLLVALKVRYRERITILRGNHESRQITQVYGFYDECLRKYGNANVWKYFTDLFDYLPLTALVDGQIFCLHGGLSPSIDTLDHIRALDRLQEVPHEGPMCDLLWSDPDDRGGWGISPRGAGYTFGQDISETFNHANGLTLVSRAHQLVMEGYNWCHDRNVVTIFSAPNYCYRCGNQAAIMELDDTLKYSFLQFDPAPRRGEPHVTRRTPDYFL
T1 sequence (P30153 2-589 partner limits assumed): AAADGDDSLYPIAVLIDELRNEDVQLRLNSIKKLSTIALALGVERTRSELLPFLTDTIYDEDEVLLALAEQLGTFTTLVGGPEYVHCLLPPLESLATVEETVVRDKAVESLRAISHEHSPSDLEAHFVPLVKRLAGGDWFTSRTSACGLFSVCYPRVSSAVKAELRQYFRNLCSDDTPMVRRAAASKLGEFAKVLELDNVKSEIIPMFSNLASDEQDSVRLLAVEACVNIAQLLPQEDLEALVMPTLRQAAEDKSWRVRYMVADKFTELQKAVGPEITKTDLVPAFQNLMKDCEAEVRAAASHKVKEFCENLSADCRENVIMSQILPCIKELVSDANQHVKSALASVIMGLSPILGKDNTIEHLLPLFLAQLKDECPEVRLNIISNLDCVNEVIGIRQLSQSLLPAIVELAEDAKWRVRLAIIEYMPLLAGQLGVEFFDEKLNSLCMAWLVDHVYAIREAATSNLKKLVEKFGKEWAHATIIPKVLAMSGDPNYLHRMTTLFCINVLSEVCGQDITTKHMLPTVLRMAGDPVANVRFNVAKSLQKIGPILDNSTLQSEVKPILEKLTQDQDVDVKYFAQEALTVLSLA
Procedure: 1×IV SKM-1 cells were seeded into 6-well microtiter plates and treated with different concentrations of LB100 (0, 1.25, 2.5, 5, 10 μNI). […] Cell lysate was sonicated for 10 seconds and then centrifuged at 20,000 g for 15 minutes. Supernatant was then assayed with the PP2A Immunoprecipitation Phosphatase Assay Kit (Millipore, Mass., USA).

THP-1 = test: MTT cytotoxicity assay, THP-1; assay type: cell-based; settings: Homo sapiens; THP-1, at 4 h after treatment
Procedure: as §1, §2

SKM-1 cells [3] = test: Annexin V and propidium iodide flow-cytometry apoptosis assay; assay type: cell-based, human; settings: for rate of apoptosis: LB100 10 μM 24 h
Procedure: Cells were seeded into 6-well plates, and treated for 24h at 37° C. with different concentrations of LB100 (0, 1.25, 2.5, 5,10 μM). After washing with PBS, aliquots of the cells were resuspended in binding buffer, and stained with 5 μl Annexin V and 5 μl propidium iodide (Biouniquer, Nanjing, China) according to the manufacturer's instructions. Fluorescence-activated cell sorting (FACS) was then performed immediately after staining.
Cells (5×10^5 cells/well) were pre-incubated for 3 h at 37° C. in the presence or absence of 20 KM of the pan-caspase inhibitor z-VAD-fmk (R&D Systems, MN, USA) in DMSO. Cells were then treated with LB100 for 24h, and processed in the Annexin V-binding assay as described above.

K562 = test: MTT cytotoxicity assay, K562; assay type: cell-based; settings: Homo sapiens; K562, at 4 h after treatment
Procedure: as §1
(§3) Cells were seeded into 96-well microtiter plates (Nunc, Roskilde, Denmark) at densities of either 1×10^5 cells/ml (established cell lines) or 5×10^5 cells/ml (primary AML cells). Cultures were exposed to different drugs for 24 h. After exposure, 20 μl of 3-(4, 5-dimethylthiazol-2-yl)-2, 5-diphenylterazolium bromide solution (MTT, Sigma-Aldrich) was added to each well. The plates were then incubated for 4 h at 37° C. The MTT-containing solution was then aspirated away, 200 μI DMSO added to each well, and absorbance at 570 nm was measured.

miR-181b-1 [4] = test: Quantitation of miR-181b-1 by real-time quantitative RT-PCR; assay type: cell-based, human; settings: SKM-1, normalized to U6 RNA, vs control
Source text: Total miRNA was extracted from 1×10^6 SKM-1 cells using the RNAiso kit for small RNA (TaKaRa, Japan), and reverse-transcribed using the One Step PrimeScript miRNA cDNA Synthesis Kit (TaKaRa, Japan). The resulting cDNA was quantified using the iCycler Real-time PCR Detection System (BioRad, Calif., USA) and SYBR Green (Takara, Japan). The expression of miR-181b-1 was quantified relative to the expression of human U6 small nuclear RNA using the 2-°° c.′ method.

SKM-1 cells [5] = test: Hoechst staining of nuclear morphology; assay type: cell-based, human; settings: 24 h, varying doses
Procedure: SKM-1 cells were treated with LB100 for 24 h. Cells were then permeabilized with 0.5% Triton X-100 for 30 min, washed with PBS, stained with 10 μg/ml Hoechst for 30 min, and washed with PBS. Nuclear morphology was observed immediately after using a BX51 fluorescence microscope (Olympus, Tokyo, Japan).

SKM-1 cells [6] = test: Leukemia colony-forming assay; assay type: cell-based, human; settings: 7 days in methylcellulose medium
Procedure: LB100-treated SKM-1 cells were seeded in a methylcellulose medium and incubated for 7 d at 37° C. The number of leukemia colony-forming units (CFU-Ls) containing >50 cells were determined manually under a light microscope (Olympus).

HL-60 = test: MTT cytotoxicity assay, HL-60; assay type: cell-based; settings: Homo sapiens; HL-60, at 4 h after treatment
Procedure: as §1, §2

Kasumi-1 = test: MTT cytotoxicity assay, Kasumi-1; assay type: cell-based; settings: Homo sapiens; Kasumi-1, at 4 h after treatment
Procedure: as §1, §3

miR-181b-1 [7] = test: MicroRNA microarray analysis; assay type: cell-based, human; settings: SKM-1, exposure 12h
Source text: Total RNA was extracted from SKM-1 and LB100-treated-SKM-1 cells using the RNeasy mini kit (Qiagen, Calif., USA) according to the manufacturer's instructions. The miRNA microarray analysis was done by KangChen (Shanghai, China).

In the case of COc1cccc2c1C(=O)c1c(O)c3c(c(O)c1C2=O)C[C@@](O)(C(C)=O)C[C@@H]3O[C@H]1C[C@H](N)[C@H](O)[C@H](C)O1 [DNR, Daunorubicin, reference compound], the SKM-1 cell viability (SKM-1) was “significantly diminished in a dose-dependent manner” and the tumor volume (SKM-1 xenografts) was “sharp decrease”.
For CN1CCN(C(=O)C2C(C(=O)O)[C@H]3CC[C@@H]2O3)CC1 (stereo partly drawn) [LB100], the G2/M phase cells (SKM-1 cells [1]; SKM-1 (13.4% before)) was 31.5%, the G0/G1 phase cells (SKM-1 cells [1]; SKM-1 (36.7% before)) was 9.8% and the “Bcl-2 expression, immunohistochemistry” value (Bcl-2) was “markedly downregulated”. For the same compound, the “CDCl2 and CDCl25C total- and phosphorylated-protein levels” value (SKM-1 cells [2]; 5 μM LB100, SKM-1) was “markedly downregulated”, the “phosphorylated Bcl-2 and CamKII” value (SKM-1 cells [2]; after LB100 administration) was “increased” and the “caspase-3 and PARP cleavage” value (SKM-1 cells [2]; immunoblotting, 24h exposure, SKM-1) was “cleavage in a concentration-dependent manner”. For the same compound, the “Bcl-2 expression, immunoblot” value (SKM-1 cells [2]; in-vitro, SKM-1, 5 μM LB100) was “markedly downregulated”, the “expression of the three PP2A subunits (PP2A-A, PP2A-B, PP2A-C)” value (SKM-1 cells [2]; western blot, 5 μM LB100 for 12 h) was “moderately decreased” and the “levels of p-AKT” value (SKM-1 cells [2]; western blot, sAML cells) was “increased”. For the same compound, the pIC50 (U937) was 5.46, the “reduction of the activity of PP2A” value (PP2A) was “up to 60%” and the pIC50 (THP-1) was 4.87. The “fraction of apoptotic sAML cells” value (SKM-1 cells [3]; 1.25 μM, 24h (3.13% in the absence of LB100)) was 8.51%, the “fraction of apoptotic sAML cells” value (SKM-1 cells [3]; 2.5 μM, 24h) was 13.61% and the “fraction of apoptotic sAML cells” value (SKM-1 cells [3]; 5 μM, 24h) was 37%. The “fraction of apoptotic sAML cells” value (SKM-1 cells [3]; 10 μM, 24h) was 65.27%, the rate of apoptosis (SKM-1 cells [3]; absence of z-VAD-FMK) was 62% and the rate of apoptosis (SKM-1 cells [3]; presence of pan-caspase inhibitor z-VAD-FMK) was 16%. For the same compound, the pIC50 (K562) was 5.15, the SKM-1 cell viability (SKM-1) was “significantly diminished in a dose-dependent manner” and the pIC50 (SKM-1; Homo sapiens, SKM-1, at 4 h after treatment) was 5.27. The “relative expression of miR-181b-1, increase” value (miR-181b-1 [4]) was “about 2 fold”, the “nuclear morphology after Hoechst staining” value (SKM-1 cells [5]) was “increased amounts of condensed, pyknotic nudei” and the “growth of SKM-1 cells, colony formation” value (SKM-1 cells [6]) was “dose-dependent inhibitory activity”. The pIC50 (HL-60) was 5.47, the pIC50 (Kasumi-1) was 5.36 and the tumor volume (SKM-1 xenografts) was “sharp decrease”. For the same compound, the “miR-181b-1 in microRNA profiling” value (miR-181b-1 [7]) was “significantly up-regulated”.

— patent US20210275521A1, “OXABICYCLOHEPTANES FOR TREATMENT OF SECONDARY ACUTE MYELOID LEUKEMIA” (Lixte Biotechnology, Inc., priority 2017, published 2021)
